PMC5711494, “Sterol methyltransferase a target for anti-amoeba therapy: towards transition state analog and suicide substrate drug design” (Journal of Lipid Research, 2017)
Where two headings read alike, the source gives them in different places.

Tests used:
Ac24-SMT = test: Substrate kinetics and product analysis with recombinant Ac24-SMT; format: biochemical, Acanthamoeba castellanii; conditions: for product ratio generated by Ac24-SMT: normalized to cycloartenol at ∼70% conversion, saturating substrate, 45 min, 35°C
Method: (§1) The SMT constructs were transformed into competent BL21(DE3) cells and transformants selected against 100 µg/ml ampicillin. Expression of the SMT constructs and partial purification of the recombinant proteins followed the procedure described previously ([19]). […] In one tube, cells were induced by addition of isopropyl thio-galactoside at a final concentration of 1 mM and in the other tube, were un-induced. Cells were harvested 2 and 4 h after induction and an equal number of cells (as calculated by OD @600 nm) from induced (+) and un-induced (−) cultures were boiled with 1X Laemmli’s buffer and analyzed by SDS-PAGE (12%). Gel was stained with Coomassie Brilliant Blue (0.2%) to establish the molecular weight and purity of the expressed protein. Total protein concentrations were determined by Bradford dye-binding procedure with bovine γ-globulin as standard. To determine the catalytic activity of the recombinant proteins, enzyme assays were carried out using soluble bacterial extract (100,000 g fraction) in 9 ml test tubes containing a total of 600 µl assay volume for 45 min (initial velocity conditions). The assay buffer contained 20 mM phosphate buffer in 5% (v/v) glycerol at pH 7.5, sterol acceptor emulsified in 12 µl Tween 80 (1.2 g/l), and the substrate tested over the concentration range 5 to 150 µM against 1.2 mg of total protein. The reaction was initiated by the addition of saturating levels of [methyl-^3H3]SAM, 0.9 µCi, at 150 µM. Incubation mixtures were saponified with methanolic potassium hydroxide and extracted with hexane (3 × 1 ml) and concentrated to dryness providing the nonsaponifiable lipid fraction; radioactivity was determined by liquid scintillation counting. […]

Ac28-SMT = test: Substrate kinetics and product analysis with recombinant Ac28-SMT; format: biochemical, Acanthamoeba castellanii; set-up: catalytic competence (kcat/Km) with Ac28-SMT: unit not given here; conditions: for product ratio generated by Ac28-SMT: normalized, saturating substrate, 45 min, 35°C
Method: as §1

TbSMT = test system: TbSMT; set-up: method as in PMID 26496686; conditions: cited from earlier work
[1] = test system: Acanthamoeba castellanii trophozoites (strain ATCC 30010); test: Ac trophozoite growth inhibition and minimum amoebicidal concentration (trypan blue exclusion); format: cell-based; conditions: 48 h incubation
Method: Ac strain ATCC 30010 was inoculated (1 × 10^4 cells/ml) into tissue culture T-25 ml flasks, prepared with ATTC media 712 and cultured axenically in 5 ml medium at 25°C. Continuous cultures populated by trophozoites ([…]; the remaining cells were cysts) was maintained by sub-culturing 4–5 day growth arrested cells (1 × 10^6 cells/ml) into fresh medium. Steroidal inhibitor and azole susceptibility assays were performed in 24-well (4 × 6) microtiter plates (3 ml total). Trophozoite assay conditions and preparation of stock solutions made to 1 μg/10 μl and 1 μg/100 μl in DMSO through serial dilution to achieve final inhibitor concentrations of 64, 32, 16, 8, 4, 2, 1, 0.5, 0.25, 0.125, 0.0625, and 0.03125 µg/ml in 1% DMSO as reported previously for voriconazole incubated with Ac ([25]). Growth curves to evaluate treated trophozoites were initiated with 1 × 10^6 cells/ml and incubated for 48 h. Cell number was calculated with the use of a hemocytometer. The percentage of viable trophozoites following exposure to different concentrations of inhibitors was determined by the standard trypan blue exclusion method. Cells stained blue were considered nonviable. […] The IC50 of inhibitors against trophozoite growth was evaluated using GraphPad Prism with default setting (GraphPad Software Inc., CA).

[2] = test system: Acanthamoeba castellanii trophozoites sterol biosynthesis; test: Sterol composition of treated Ac trophozoites (GC/MS); format: cell-based; conditions: to 48 h
Method: Amoeba and HEK cells were harvested at one or more points during growth in the presence and absence of steroidal inhibitor and azole at IC50 or MACs of the inhibitor or at 40 µM for HEK cells. Cell pellets were split with an internal standard of known amounts of 5α-cholestane added to one of the cell pellets for determination of sterol amounts in cells. Cells were saponified directly in aqueous methanolic potassium hydroxide at the reflux temperature for 1 h, which yielded total sterol (free plus sterol released from ester bonds). The resulting neutral lipids obtained by dilution with water and extraction with hexane (Fisher) were analyzed by GC/MS or HPLC-equipped with a diode array detector against cholesterol as a chromatographic reference. GC and HPLC retention times of sterols were compared with those obtained from authentic standards in our steroid collection ([18]–[22]). To determine the trophozoite sterol metabolome, GC/MS analysis of cell pellet nonsaponfiables was typically carried out using control cultures incubated in 5 ml medium in 25 ml T-flasks inoculated with 1 × 10^4 trophozoites/ml and cultured for 72 h. To generate significant cell pellets for sterol analysis of treated cells, trophozoites were cultured in 10 ml medium in 25 ml T-flasks inoculated with 1 × 10^5 cells/ml and grown for 48 h.

[3] = test system: Acanthamoeba castellanii trophozoites (strain ATCC 30010); set-up: method as in PMID 26014948; conditions: previously reported; read-out: IC50 for Ac growth, previously reported value; cited from earlier work

Molecule	product ratio generated by Ac24-SMT (Ac24-SMT)	product ratio generated by Ac28-SMT (Ac28-SMT)	further results
CC(C)=CCCC(C)C1CC[C@@]2(C)C3=C(CCC12C)C1(C)CCC(O)CC1CC3 (stereo partly drawn) [14α-methylzymosterol]	97	26	
C=C(CCC(C)C1CCC2(C)C3CCC4C(C)(C)C(O)CCC45CC35CCC12C)C(C)C (stereo not drawn) [24(28)-methylenecycloartanol]	0	0	
C=C(CCC(C)C1CCC2C3=CCC4C(C)C(O)CCC4(C)C3CCC21C)C(C)C (stereo not drawn) [24(28)-methylenelophenol]	0	100	Km as substrate of Ac28-SMT (Ac28-SMT; from Lineweaver-Burk plots): ~25 µM; catalytic competence (kcat/Km) with Ac28-SMT (Ac28-SMT; from Lineweaver-Burk plots): ~0.03; kcat as substrate of Ac28-SMT (Ac28-SMT; from Lineweaver-Burk plots): ~0.013 s⁻¹
CC(=CCC[C@@H](C)[C@H]1CC[C@H]2C3=CC=C4C[C@@H](O)CC[C@]4(C)[C@H]3CC[C@]12C)CF [26-flourocholesta-5,7,24-trieniol]			partition ratio against TbSMT (TbSMT): 3
CC(C)=CCCC(C)C1CC[C@@]2(C)C3=C(CCC12C)C1(C)CCC(O)[C@@H](C)C1CC3 (stereo partly drawn) [31-norlanosterol]	100	49	
CC(C)=CCCC(C)C1CCC2C3=CC=C4CC(O)CCC4(C)C3CCC21C (stereo not drawn) [cholesta-5,7,24-trienol]	100	50	
CC(C)=CCC[C@@H](C)[C@H]1CC[C@@]2(C)[C@@H]3CC[C@H]4C(C)(C)[C@@H](O)CC[C@@]45C[C@@]35CC[C@]12C [cycloartenol]	100	67	Km (Michaelis / binding constant) as substrate of Ac24-SMT (Ac24-SMT; saturating SAM 150 µM, initial velocity conditions): ~44 µM; kcat (turnover rate) as substrate of Ac24-SMT (Ac24-SMT; saturating SAM, initial velocity conditions): about 1.5 min^−1
C=C(CC[C@@H](C)[C@H]1CC[C@@]2(C)[C@@H]3CC[C@H]4[C@H](C)[C@@H](O)CC[C@@]45C[C@@]35CC[C@]12C)C(C)C [cycloeucalenol]	0	0	
C=C(CCC(C)C1CCC2C3=CCC4CC(O)CCC4(C)C3CCC21C)C(C)C (stereo not drawn) [episterol]	0	64	
C=C(CCC(C)C1CCC2C3=C(CCC21C)C1(C)CCC(O)CC1CC3)C(C)C (stereo not drawn) [fecosterol]	0	29	
CC(C)=CCC[C@@H](C)[C@H]1CC[C@@]2(C)C3=C(CC[C@]12C)[C@@]1(C)CC[C@H](O)C(C)(C)[C@@H]1CC3 [lanosterol]	100	15	
C=C(CC[C@@H](C)[C@H]1CC[C@@]2(C)C3=C(CC[C@]12C)[C@@]1(C)CC[C@H](O)[C@@H](C)[C@@H]1CC3)C(C)C [obtusifoliol]	0	0	
C[C@@H](c1ncncc1F)[C@](O)(Cn1cncn1)c1ccc(F)cc1F [voriconazole]			MAC (complete inhibition of growth, minimum amoebicidal concentration) [1]: 3 µM; IC50 ([1]; Acanthamoeba castellanii, ATCC30010, Ac trophozoites): 140 nM; accumulation of substrate of the target enzyme in treated trophozoites [2]: ≤ 1 % total; IC50 [3]: 390 nM
CC(C)=CCCC(C)C1CCC2C3=C(CCC21C)C1(C)CCC(O)CC1CC3 (stereo not drawn) [zymosterol]	97	63	
eburicol	0	0	
